Each block holds one compound with its values, some of them ahead of it.
Assays:
dog = conditions: Sub-acute repeat dose toxicity; beagle; Oral; Gavage/Intubation; dose end: 28 day; group: systemic; systemic / clinical chemistry / alanine aminotransferase (alt/sgpt) / alanine aminotransferase (alt/sgpt) + systemic / clinical chemistry / …
rat [1] = conditions: Sub-acute repeat dose toxicity; sprague dawley; Oral; Gavage/Intubation; dose end: 28 day; group: systemic; systemic / clinical chemistry / alanine aminotransferase (alt/sgpt) / alanine aminotransferase (alt/sgpt) + systemic / clinical chemistry / …
rat [2] = conditions: Sub-acute repeat dose toxicity; sprague dawley; Injection; Intravenous; dose end: 13 day; group: systemic; systemic / clinical chemistry / alanine aminotransferase (alt/sgpt) / alanine aminotransferase (alt/sgpt) + systemic / clinical chemistry / …
mouse [3] = conditions: Other (NonGuideline or Guideline Not Listed); cd1; Injection; Intravenous; dose end: 7 day; group: cannot be grouped; systemic / clinical chemistry / alanine aminotransferase (alt/sgpt) / alanine aminotransferase (alt/sgpt) + systemic / clinical chemistry / …
rat [4] = conditions: Other (NonGuideline or Guideline Not Listed); sprague dawley; Injection; Intravenous; dose end: 3 day; group: cannot be grouped; systemic / clinical chemistry / chloride / chloride + systemic / clinical chemistry / creatinine / creatinine + systemic / clinical …
rat [5] = conditions: Other (NonGuideline or Guideline Not Listed); wistar; Injection; Intravenous; dose end: 3 day; group: cannot be grouped; systemic / clinical chemistry / cholesterol / cholesterol + systemic / clinical chemistry / creatinine / creatinine + systemic / clinical …
mouse [6] = conditions: Carcinogenicity, b6c3f1, Oral, Feed, dose end: 78 week, group: systemic
rat [7] = conditions: Carcinogenicity, fischer, Oral, Feed, dose end: 78 week, group: systemic
[8] = systemic / in life observation / body weight / body weight
[9] = systemic / in life observation / body weight / body weight + systemic / pathology microscopic / liver / carcinoma + systemic / in life …
[10] = systemic / pathology microscopic / liver / carcinoma + systemic / pathology microscopic / zymbal's gland / squamous cell carcinoma + …

SMILES: CNS(=O)(=O)c1cc(C(=O)N2CCC(CCN3C4CCC3CC(n3c(C)nc5ccccc53)C4)(c3cccc(F)c3)CC2)c(Cl)cc1F (configuration not stated)
LEL (dog): 250 mg/kg/day
LOAEL (dog): > 750 mg/kg/day
NEL (dog): < 250 mg/kg/day
NOAEL (dog): ≥ 750 mg/kg/day
LEL (rat [1]): 500 mg/kg/day
LOAEL (rat [1]): > 2000 mg/kg/day
NEL (rat [1]): < 500 mg/kg/day
NOAEL (rat [1]): ≥ 2000 mg/kg/day

LEL (rat [4]): 150 mg/kg/day
NEL (rat [4]): < 150 mg/kg/day
LEL (rat [5]): 150 mg/kg/day
NEL (rat [5]): 75 mg/kg/day
SMILES: C[C@@H](O)[C@H]1C(=O)N2C(C(=O)[O-])=C(CN3c4cccc5c(CC[N+]67CC[N+](CC(N)=O)(CC6)CC7)ccc(c45)S3(=O)=O)[C@H](C)[C@H]12.[Cl-]
LEL (rat [2]): 150 mg/kg/day
LOAEL (rat [2]): > 225 mg/kg/day
NEL (rat [2]): 75 mg/kg/day
NOAEL (rat [2]): ≥ 225 mg/kg/day
LEL (mouse [3]): 400 mg/kg/day
LOAEL (mouse [3]): > 800 mg/kg/day
NEL (mouse [3]): 200 mg/kg/day
NOAEL (mouse [3]): ≥ 800 mg/kg/day
LOAEL (rat [4]): > 150 mg/kg/day
NOAEL (rat [4]): ≥ 150 mg/kg/day
LOAEL (rat [5]): > 225 mg/kg/day
NOAEL (rat [5]): ≥ 225 mg/kg/day

SMILES: c1ccc(NNc2ccccc2)cc1 [1,2-Diphenylhydrazine]
LOAEL (mouse [6]; [8]): 60 mg/kg/day
LEL (mouse [6]; [9]): 60 mg/kg/day
NEL (mouse [6]; [9]): 6 mg/kg/day
NOAEL (mouse [6]; [9]): 6 mg/kg/day
LEL (rat [7]; [8]): 2 mg/kg/day
NEL (rat [7]; [8]): < 2 mg/kg/day
LOAEL (rat [7]; [10]): > 4 mg/kg/day
NOAEL (rat [7]; [10]): ≥ 4 mg/kg/day

Source: EPA's ToxRefDB 2
